{"source": "paper PMC10442912", "about": "(2023)", "key": {"[1]": {"test_system": "CAP1 (DNA, aptamer) CGACATAGAGGATCCATCTTGGGGTGTGTAGTGTGTCG", "assay": "fluorescence titration", "details": "10 mM Mg2+; 20 mM Tris-HCl pH 7.8; CAP1 titrated into 2.5 μM ThT"}, "[2]": {"test_system": "CAP3 (DNA, aptamer) CGACCTAGTGTCCATCGTTCAGTTCCGATTTCTGGTCG", "assay": "ThT fluorescence displacement", "details": "10 mM Mg2+; 50 mM Tris-HCl pH 7.8; 1 μM aptamer, 0.5 μM ThT displaced"}, "[3]": {"test_system": "CAP1 (DNA, aptamer) CGACATAGAGGATCCATCTTGGGGTGTGTAGTGTGTCG", "assay": "ITC", "details": "300 mM Na+, 5 mM K+, 10 mM Mg2+; 50 mM Tris-HCl pH 7.8, 25 °C, preannealed"}, "[4]": {"test_system": "CAP1 (DNA, aptamer) CGACATAGAGGATCCATCTTGGGGTGTGTAGTGTGTCG", "assay": "ThT fluorescence displacement", "details": "10 mM Mg2+; 50 mM Tris-HCl pH 7.8; 1 μM aptamer, 0.5 μM ThT displaced"}}}
{"smiles": "Cc1ccc2c(c1)sc(-c1ccc(N(C)C)cc1)[n+]2C", "values": [{"measurement": "Kd", "setting": "[1]", "value": 2.3, "unit": "µM"}]}
{"smiles": "O=C(N[C@H](CO)[C@H](O)c1ccc([N+](=O)[O-])cc1)C(Cl)Cl", "values": [{"measurement": "Kd", "setting": "[2]", "value": 46, "unit": "µM"}, {"measurement": "Kd", "setting": "[3]", "value": "9.8 ± 0.5", "unit": "µM"}, {"measurement": "Kd", "setting": "[4]", "value": 4.2, "unit": "µM"}]}
